Reference: patent publication US11446262B2, “Neuroquiescence—a treatment for neurodevelopmental and neurodegenerative bioelectrical dysregulation and demyelination” (priority 2018, dated 2022)
“Also recorded” adds a separate entry of the source.

Key:
[1] = test system: children with Epilepsy (seizures, neuronal agitation noise on EEG); experiment: Neuroquiescence protocol (Dobutamine preparation plus sustained sedation) in children with Epilepsy, hospital case series; format: in vivo, human
[2] = test system: patients with seizures (Epilepsy); experiment: Use of Dobutamine in seizure patients before the sedation session (adults); format: in vivo, human
Excerpt: We alternate weeks between the Neurokinin-2 (Nk2) versus the Dobutamine Infusion (Dob). We are limited to four doses of Neurokinin 2, so we distribute them among the Dobutamine doses to maximize the Neurokinin-2 counterinflammation. We use no Dobutamine on the day before or after the day of Neurokinin-2.
The traditional “intractable” Epilepsy concept is overcome by use of Dobutamine, which is about cerebrovascular bloodflow, not about suppression of seizures. Dobutamine outperforms antiseizure medications because it addresses the true root-cause of seizures.

[3] = test system: children with seizures and agitated bioelectrical brain activity; parameters: species or system human; conditions: in vivo
[4] = test system: seizure and Grand mal seizure; experiment: Midazolam IV for termination of seizure; format: in vivo, human; conditions: IV 0.2 mg/kg (Maximum 10 mg)
[5] = Absorption of Midazolam administered by IV
[6] = test system: patients (allergic reaction); experiment: Anesthesia allergy test before the Neuroquiescence session

SMILES | children having no neuronal agitation noise, never returns ([1]; after week-six Neuroquiescence sedation session, Dobutamine continued) | children with no seizures but neuronal agitation noise still present ([1]; weeks two through five, Pre-Neuroquiescence preparation on Dobutamine, no antiseizure medication) | seizure status of adults previously taking multiple antiseizure medications ([2]; intravenous Dobutamine, before sedation session) | performance versus antiseizure medication ([2]; neuronal agitation still present during weeks of microvascular preparation) | time to seizure-free ([2]; one adult with unmanageable morning seizures for fifteen years) | neuronal agitation on EEG ([2]; same adult, a few more months, all antiseizure medications removed) | EEG monitoring and Brainscans [3] | symptoms of seizures and agitated bioelectrical brain activity [3] | symptoms of seizures and bioelectrical brain activity after Neuroquiescence [3] | termination of frequency of seizure and Grand mal seizure [4] | absorption [5] | patients allergic in allergy test [6]
CC(CCc1ccc(O)cc1)NCCc1ccc(O)c(O)c1 (stereo not drawn) [Dobutamine] | over 95% | about 80% | become seizure free | consistently outperformed their antiseizure medication | seizure-free in less than one month | no neuronal agitation measurable at EEG sensitivities |  |  |  |  |  | 
Cc1ncc2n1-c1ccc(Cl)cc1C(c1ccccc1F)=NC2 [Midazolam] |  |  |  |  |  |  | became normal | resolved | partial improvement; also recorded: resolved | effective | well absorbed | approximately 5%
